Laboratory results published in ChEMBL document CHEMBL1143794, “Discovery of [7-(2,6-dichlorophenyl)-5-methylbenzo [1,2,4]triazin-3-yl]-[4-(2-pyrrolidin-1-ylethoxy)phenyl]amine--a potent, orally active Src kinase inhibitor with anti-tumor activity in preclinical assays” (Bioorg Med Chem Lett, 2007).

Key:
[1] = biological target: Proto-oncogene tyrosine-protein kinase Src (Homo sapiens, UniProt P12931)
CT26 [2] = assay: Antitumor activity against mouse CT26 cells; format: functional, cell-based
Cytochrome P450 2D6 = Cytochrome P450 2D6 (Homo sapiens, UniProt P10635); assay: Inhibition of CYP2D6; format: ADME
Cytochrome P450 2D6, sequence (P10635 whole entry): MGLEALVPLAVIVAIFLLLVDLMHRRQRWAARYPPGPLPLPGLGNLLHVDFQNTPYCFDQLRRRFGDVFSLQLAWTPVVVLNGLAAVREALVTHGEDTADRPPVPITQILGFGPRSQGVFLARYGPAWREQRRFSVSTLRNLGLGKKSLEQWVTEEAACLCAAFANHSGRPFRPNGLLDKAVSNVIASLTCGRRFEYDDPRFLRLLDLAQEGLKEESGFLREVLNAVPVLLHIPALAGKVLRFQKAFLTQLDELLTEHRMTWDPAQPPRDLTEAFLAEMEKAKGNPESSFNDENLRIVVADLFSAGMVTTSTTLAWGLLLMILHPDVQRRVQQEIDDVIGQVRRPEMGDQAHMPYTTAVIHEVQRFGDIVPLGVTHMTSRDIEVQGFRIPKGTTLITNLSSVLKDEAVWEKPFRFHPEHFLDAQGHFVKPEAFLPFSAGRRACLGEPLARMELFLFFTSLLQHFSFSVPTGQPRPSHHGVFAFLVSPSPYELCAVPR

Mus musculus [3] = assay: AUC in mouse at 25 mg/kg, po; format: ADME, organism-based, Plasma; design: dose 25 mg/kg, route oral; conditions: in vivo
MOLT-4 = assay: Antitumor activity against Molt4 cells; format: functional, cell-based; conditions: Homo sapiens
Canis familiaris [4] = assay: Volume of distribution in dog at 25 mg/kg, po; format: ADME, organism-based, Canis lupus familiaris; design: dose 25 mg/kg, route oral; conditions: in vivo
[5] = Bioavailability in rat at 25 mg/kg, po; format: ADME, organism-based; conditions: in vivo
A549 [6] = assay: Antitumor activity against A549 cells; format: functional, cell-based; conditions: Homo sapiens
Rattus norvegicus [7] = assay: AUC in rat at 25 mg/kg, po; format: ADME, organism-based, Plasma; design: dose 25 mg/kg, route oral; conditions: in vivo
CT26 [8] = assay: Reduction of tumor volume in CT26 xenografted in BALB/c mouse at 50 mg/kg, ip relative to control; format: functional; design: scale not given: the % may be the effect or the level left; conditions: route intraperitoneal
Cytochrome P450 2C19 = Cytochrome P450 2C19 (Homo sapiens, UniProt P33261); assay: Inhibition of CYP2C19; format: ADME
Cytochrome P450 2C19, sequence (P33261 whole entry): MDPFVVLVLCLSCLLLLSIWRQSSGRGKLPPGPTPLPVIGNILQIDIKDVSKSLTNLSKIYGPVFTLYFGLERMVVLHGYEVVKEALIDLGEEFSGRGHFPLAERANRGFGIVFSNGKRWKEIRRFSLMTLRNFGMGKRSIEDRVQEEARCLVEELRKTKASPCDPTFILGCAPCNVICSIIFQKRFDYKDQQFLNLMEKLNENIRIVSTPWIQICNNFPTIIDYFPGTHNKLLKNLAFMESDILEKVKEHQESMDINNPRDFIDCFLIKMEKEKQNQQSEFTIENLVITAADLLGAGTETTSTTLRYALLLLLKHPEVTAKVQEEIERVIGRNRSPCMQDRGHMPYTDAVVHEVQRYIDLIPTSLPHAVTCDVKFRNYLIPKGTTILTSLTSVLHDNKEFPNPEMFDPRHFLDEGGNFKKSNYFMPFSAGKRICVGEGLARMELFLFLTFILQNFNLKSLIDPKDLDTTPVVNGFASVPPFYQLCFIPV

[9] = Tmax in rat at 25 mg/kg, po; format: ADME, organism-based; design: dose 25 mg/kg, route oral; conditions: in vivo
K562 = assay: Antitumor activity against K562 cells; format: functional, cell-based; conditions: Homo sapiens
Canis familiaris [10] = assay: AUC in dog at 25 mg/kg, po; format: ADME, organism-based, Canis lupus familiaris, Plasma; design: dose 25 mg/kg, route oral; conditions: in vivo
[11] = Clearance in dog at 25 mg/kg, po; format: ADME, organism-based, Canis lupus familiaris; design: dose 25 mg/kg, route oral; conditions: in vivo
A549 [12] = assay: Reduction of tumor burden in A549 cells xenografted in nu/nu mouse at 40 mg/kg, ip relative to control; format: functional; design: scale not given: the % may be the effect or the level left; conditions: route intraperitoneal
[13] = biological target: Platelet-derived growth factor receptor beta (Homo sapiens, UniProt P09619); assay: Inhibition of PDGFRbeta
Platelet-derived growth factor receptor beta, sequence (P09619 whole entry): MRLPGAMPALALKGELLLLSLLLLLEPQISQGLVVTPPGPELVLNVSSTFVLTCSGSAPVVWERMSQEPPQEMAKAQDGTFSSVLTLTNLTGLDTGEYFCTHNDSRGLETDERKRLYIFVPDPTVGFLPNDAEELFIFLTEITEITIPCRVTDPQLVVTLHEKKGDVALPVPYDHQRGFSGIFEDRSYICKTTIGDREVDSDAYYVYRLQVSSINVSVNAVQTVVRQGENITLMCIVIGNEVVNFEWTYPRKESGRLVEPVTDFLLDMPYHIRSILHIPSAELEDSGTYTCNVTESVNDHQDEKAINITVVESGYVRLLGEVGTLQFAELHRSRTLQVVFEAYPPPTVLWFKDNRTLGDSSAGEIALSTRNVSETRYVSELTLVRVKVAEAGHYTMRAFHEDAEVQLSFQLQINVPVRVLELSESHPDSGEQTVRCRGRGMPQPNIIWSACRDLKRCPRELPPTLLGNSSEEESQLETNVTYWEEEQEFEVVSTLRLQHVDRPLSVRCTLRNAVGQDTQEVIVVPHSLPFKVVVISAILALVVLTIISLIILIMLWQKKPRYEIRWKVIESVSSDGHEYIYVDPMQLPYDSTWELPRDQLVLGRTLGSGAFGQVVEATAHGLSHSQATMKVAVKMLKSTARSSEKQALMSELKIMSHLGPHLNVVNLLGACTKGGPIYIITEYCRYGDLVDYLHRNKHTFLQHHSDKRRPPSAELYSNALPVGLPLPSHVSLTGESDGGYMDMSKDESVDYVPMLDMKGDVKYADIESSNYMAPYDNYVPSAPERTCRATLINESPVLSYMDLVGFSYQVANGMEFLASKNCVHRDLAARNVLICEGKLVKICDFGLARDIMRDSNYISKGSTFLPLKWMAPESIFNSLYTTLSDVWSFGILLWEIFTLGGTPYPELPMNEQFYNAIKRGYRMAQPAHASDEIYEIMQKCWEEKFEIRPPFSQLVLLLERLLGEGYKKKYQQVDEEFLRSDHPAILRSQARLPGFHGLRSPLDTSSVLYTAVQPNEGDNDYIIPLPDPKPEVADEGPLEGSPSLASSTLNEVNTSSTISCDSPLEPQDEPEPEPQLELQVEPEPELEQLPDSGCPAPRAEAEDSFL

[14] = Half life in mouse at 25 mg/kg, po; format: ADME, organism-based; design: dose 25 mg/kg, route oral; conditions: in vivo
[15] = Tmax in dog at 25 mg/kg, po; format: ADME, organism-based, Canis lupus familiaris; design: dose 25 mg/kg, route oral; conditions: in vivo
COLO 205 = assay: Antitumor activity against Colo205 cells; format: functional, cell-based; conditions: Homo sapiens
Cytochrome P450 1A2 = biological target: T1, Cytochrome P450 1A2 (Homo sapiens, UniProt P05177); assay: Inhibition of CYP1A2; format: ADME
T1 sequence (P05177 whole entry): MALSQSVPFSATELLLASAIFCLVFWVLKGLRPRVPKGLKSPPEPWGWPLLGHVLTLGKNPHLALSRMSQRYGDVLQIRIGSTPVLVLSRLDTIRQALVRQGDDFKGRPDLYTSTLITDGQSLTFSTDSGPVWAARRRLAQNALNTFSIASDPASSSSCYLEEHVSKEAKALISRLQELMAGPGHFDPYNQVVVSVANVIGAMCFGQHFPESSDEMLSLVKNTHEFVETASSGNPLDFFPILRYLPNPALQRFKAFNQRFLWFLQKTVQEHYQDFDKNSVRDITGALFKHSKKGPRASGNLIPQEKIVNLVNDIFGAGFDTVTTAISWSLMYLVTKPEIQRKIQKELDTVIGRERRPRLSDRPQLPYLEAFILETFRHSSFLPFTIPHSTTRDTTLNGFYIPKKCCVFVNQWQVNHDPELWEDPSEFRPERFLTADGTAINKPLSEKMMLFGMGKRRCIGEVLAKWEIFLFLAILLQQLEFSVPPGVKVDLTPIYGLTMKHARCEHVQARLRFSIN

[16] = Clearance in mouse at 25 mg/kg, po; format: ADME, organism-based; design: dose 25 mg/kg, route oral; conditions: in vivo
HT-29 = assay: Antitumor activity against HT29 cells; format: functional, cell-based; conditions: Homo sapiens
Mus musculus [17] = assay: Volume of distribution in mouse at 25 mg/kg, po; format: ADME, organism-based; design: dose 25 mg/kg, route oral; conditions: in vivo
[18] = Tmax in mouse at 25 mg/kg, po; format: ADME, organism-based; design: dose 25 mg/kg, route oral; conditions: in vivo
[19] = Clearance in rat at 25 mg/kg, po; format: ADME, organism-based; design: dose 25 mg/kg, route oral; conditions: in vivo
[20] = Half life in rat at 25 mg/kg, po; format: ADME, organism-based; design: dose 25 mg/kg, route oral; conditions: in vivo
MCF7 = assay: Antitumor activity against MCF7 cells; format: functional, cell-based; conditions: Homo sapiens
[21] = Cmax in mouse at 25 mg/kg, po; format: ADME, organism-based; design: dose 25 mg/kg, route oral; conditions: in vivo
Cytochrome P450 3A4 = Cytochrome P450 3A4 (Homo sapiens, UniProt P08684); assay: Inhibition of CYP3A4; format: ADME
Cytochrome P450 3A4, sequence (P08684 whole entry): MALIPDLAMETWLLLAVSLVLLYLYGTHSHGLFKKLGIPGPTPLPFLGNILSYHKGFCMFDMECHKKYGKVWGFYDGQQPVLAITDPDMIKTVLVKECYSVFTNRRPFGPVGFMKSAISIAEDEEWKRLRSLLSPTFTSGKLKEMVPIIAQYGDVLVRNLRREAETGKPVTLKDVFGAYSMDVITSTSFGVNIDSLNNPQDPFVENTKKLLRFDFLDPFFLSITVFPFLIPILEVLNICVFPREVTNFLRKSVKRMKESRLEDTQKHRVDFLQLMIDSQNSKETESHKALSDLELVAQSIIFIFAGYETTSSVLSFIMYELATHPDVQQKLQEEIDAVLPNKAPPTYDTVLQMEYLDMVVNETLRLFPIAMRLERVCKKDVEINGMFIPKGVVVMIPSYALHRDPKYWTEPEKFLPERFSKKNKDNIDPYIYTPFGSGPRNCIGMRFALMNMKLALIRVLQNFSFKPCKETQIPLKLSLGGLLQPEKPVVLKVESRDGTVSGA

[22] = Half life in dog at 25 mg/kg, po; format: ADME, organism-based, Canis lupus familiaris; design: dose 25 mg/kg, route oral; conditions: in vivo
Rattus norvegicus [23] = assay: Volume of distribution in rat at 25 mg/kg, po; format: ADME, organism-based; design: dose 25 mg/kg, route oral; conditions: in vivo
[24] = Cmax in dog at 25 mg/kg, po; format: ADME, organism-based, Canis lupus familiaris; design: dose 25 mg/kg, route oral; conditions: in vivo
MDA-MB-231 = assay: Antitumor activity against MDA-MB-231 cells; format: functional, cell-based; conditions: Homo sapiens
[25] = Bioavailability in mouse at 25 mg/kg, po; format: ADME, organism-based; conditions: in vivo
Cytochrome P450 2C9 = Cytochrome P450 2C9 (Homo sapiens, UniProt P11712); assay: Inhibition of CYP2C9; format: ADME
Cytochrome P450 2C9, sequence (P11712 whole entry): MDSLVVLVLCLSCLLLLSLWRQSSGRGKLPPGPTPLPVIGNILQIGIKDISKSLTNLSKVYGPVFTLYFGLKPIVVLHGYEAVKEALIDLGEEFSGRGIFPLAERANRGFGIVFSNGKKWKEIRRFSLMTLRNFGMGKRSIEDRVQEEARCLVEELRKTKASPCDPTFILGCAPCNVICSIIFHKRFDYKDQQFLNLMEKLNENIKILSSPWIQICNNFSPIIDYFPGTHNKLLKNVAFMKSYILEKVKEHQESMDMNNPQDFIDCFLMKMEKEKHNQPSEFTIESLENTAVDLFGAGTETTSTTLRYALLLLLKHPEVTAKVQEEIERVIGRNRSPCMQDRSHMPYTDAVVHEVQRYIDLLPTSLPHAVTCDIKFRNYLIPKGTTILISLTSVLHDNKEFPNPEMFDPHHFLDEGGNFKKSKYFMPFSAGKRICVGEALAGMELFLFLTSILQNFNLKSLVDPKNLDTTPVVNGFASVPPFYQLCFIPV

[26] = Cmax in rat at 25 mg/kg, po; format: ADME, organism-based; design: dose 25 mg/kg, route oral; conditions: in vivo
[27] = Bioavailability in dog at 25 mg/kg, po; format: ADME, organism-based, Canis lupus familiaris; conditions: in vivo

Proto-oncogene tyrosine-protein kinase Src, sequence (P12931 2-536 limits assumed): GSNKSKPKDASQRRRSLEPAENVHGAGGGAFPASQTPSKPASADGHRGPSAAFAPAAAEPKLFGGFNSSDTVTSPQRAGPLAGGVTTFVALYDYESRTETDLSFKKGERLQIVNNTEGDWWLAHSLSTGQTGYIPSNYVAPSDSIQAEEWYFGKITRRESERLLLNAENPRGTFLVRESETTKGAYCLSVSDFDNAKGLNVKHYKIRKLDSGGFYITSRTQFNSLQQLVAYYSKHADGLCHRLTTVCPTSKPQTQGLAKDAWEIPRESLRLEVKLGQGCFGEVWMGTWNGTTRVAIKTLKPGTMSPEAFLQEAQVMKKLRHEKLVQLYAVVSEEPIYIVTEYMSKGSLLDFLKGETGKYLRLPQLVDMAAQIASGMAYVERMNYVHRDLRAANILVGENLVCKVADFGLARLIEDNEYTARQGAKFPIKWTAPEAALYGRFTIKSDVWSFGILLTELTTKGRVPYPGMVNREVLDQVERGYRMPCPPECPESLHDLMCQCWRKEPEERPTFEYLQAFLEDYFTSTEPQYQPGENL

Cc1cc2nc(Nc3ccc(S(=O)(=O)NCCN4CCCC4)cc3)nnc2cc1N
IC50 [1]: 92 nM

Cc1cccc(C)c1-c1cc(C)c2nc(Nc3ccc(N(CCN4CCCC4)C(=O)c4ccccc4)cc3)nnc2c1
IC50 [1]: 16 nM | IC50 (CT26 [2]): 2400 nM

Clc1cccc(Cl)c1-c1ccc2nc(Nc3ccc(OCCN4CCCC4)cc3)nnc2c1
IC50 [1]: 30 nM

CNc1cc(-c2c(C)cccc2C)cc2nnc(Nc3ccc(OCCN4CCCC4)cc3)nc12
IC50 [1]: 10 nM

CCN(CC)CCOc1cccc(Nc2nnc3cc(-c4c(C)cccc4C)cc(C)c3n2)c1
IC50 (CT26 [2]): 2500 nM

Cc1cccc(C)c1-c1cc(N)c2nc(Nc3ccc(OCCN4CCCC4)cc3)nnc2c1
IC50 [1]: 10 nM

Cc1cccc(C)c1-c1cc(C)c2nc(Nc3cccc(N(CCN4CCCC4)C(=O)c4ccccc4)c3)nnc2c1
IC50 [1]: 18 nM

Cc1cnc(F)cc1-c1cc(C)c2nc(Nc3ccc(OCCN4CCCC4)cc3)nnc2c1
IC50 [1]: 204 nM

Cc1cccc(C)c1-c1cc(C)c2nc(Nc3ccc(C(=O)NN4CCN(C)CC4)cc3)nnc2c1
IC50 [1]: 15 nM | IC50 (CT26 [2]): 6700 nM

Cc1ccc(CN)cc1-c1cc(C)c2nc(Nc3ccc(S(=O)(=O)NCCN4CCCC4)cc3)nnc2c1
IC50 [1]: 353 nM

Cc1cccc(C)c1-c1cc(C)c2nc(Nc3ccc(C(=O)NN4CCNCC4)cc3)nnc2c1
IC50 [1]: 13 nM

Cc1cccc(C)c1-c1cc(C)c2nc(Nc3ccnc(OCCN4CCCC4)c3)nnc2c1
IC50 (CT26 [2]): 2400 nM

Cc1cccc(C)c1-c1cc(C)c2nc(Nc3ccc(OCCN4CCN(C)CC4)cc3)nnc2c1
IC50 (CT26 [2]): 6600 nM

Cc1ccc2nnc(Nc3ccc(S(=O)(=O)NCCN4CCCC4)cc3)nc2c1
IC50 [1]: > 10000 nM

c1ccc2nc(Nc3ccc(OCCN4CCCC4)cc3)nnc2c1
IC50 [1]: > 10000 nM

Cc1cc(-c2c(Cl)cccc2Cl)cc2nnc(Nc3ccc(OCCN4CCCC4)cc3)nc12
IC50 (Cytochrome P450 2D6): 33000 nM | AUC (Mus musculus [3]): 15300 ng·h/mL | IC50 (MOLT-4): 250 nM | Vdss (Canis familiaris [4]): 18.7 L/kg | bioavailability [5]: 35% | IC50 (A549 [6]): 900 nM | AUC (Rattus norvegicus [7]): 8010 ng·h/mL | Activity (CT26 [8]): 60% | IC50 (Cytochrome P450 2C19): 12000 nM | Tmax [9]: 8.8 h | IC50 (K562): 215 nM | AUC (Canis familiaris [10]): 8680 ng·h/mL | CL/F [11]: 14.5 mL/min/kg | Activity (A549 [12]): 86% | Ki [13]: 2090 nM | half-life [14]: 8 h | Tmax [15]: 4 h | IC50 (COLO 205): 2500 nM | IC50 (Cytochrome P450 1A2): > 100000 nM | CL/F [16]: 12.7 mL/min/kg | IC50 (HT-29): > 5000 nM | Vdss (Mus musculus [17]): 16.1 L/kg | Tmax [18]: 8 h | CL/F [19]: 12.7 mL/min/kg | half-life [20]: 4.6 h | IC50 (MCF7): 85 nM | Cmax [21]: 415 ng/mL | IC50 (Cytochrome P450 3A4): 62000 nM | half-life [22]: 13 h | Vdss (Rattus norvegicus [23]): 9.4 L/kg | Cmax [24]: 679 ng/mL | IC50 (MDA-MB-231): 240 nM | bioavailability [25]: 74% | IC50 (Cytochrome P450 2C9): > 100000 nM | Cmax [26]: 348 ng/mL | IC50 (CT26 [2]): 750 nM | bioavailability [27]: 42%

CC(=O)Nc1cc(-c2c(C)cccc2C)cc2nnc(Nc3ccc(OCCN4CCCC4)cc3)nc12
IC50 [1]: 14 nM

Cc1cccc(C)c1-c1cc(NS(C)(=O)=O)c2nc(Nc3ccc(OCCN4CCCC4)cc3)nnc2c1
IC50 [1]: 21 nM

Cc1cccc(C)c1-c1cc(C)c2nc(Nc3ccc(OCCN4CCCC4)cc3)nnc2c1
IC50 (Cytochrome P450 2D6): 25000 nM | AUC (Mus musculus [3]): 19100 ng·h/mL | Vdss (Canis familiaris [4]): 8.6 L/kg | bioavailability [5]: 20% | AUC (Rattus norvegicus [7]): 9570 ng·h/mL | IC50 (Cytochrome P450 2C19): 12000 nM | Tmax [9]: 6 h | AUC (Canis familiaris [10]): 9680 ng·h/mL | CL/F [11]: 5.1 mL/min/kg | half-life [14]: 9.5 h | Tmax [15]: 1.5 h | IC50 (Cytochrome P450 1A2): > 100000 nM | CL/F [16]: 18.8 mL/min/kg | Vdss (Mus musculus [17]): 11.4 L/kg | Tmax [18]: 6 h | CL/F [19]: 9.2 mL/min/kg | half-life [20]: 5.6 h | Cmax [21]: 790 ng/mL | IC50 (Cytochrome P450 3A4): 42000 nM | half-life [22]: 19 h | Vdss (Rattus norvegicus [23]): 7.2 L/kg | Cmax [24]: 5240 ng/mL | bioavailability [25]: 86% | IC50 (Cytochrome P450 2C9): > 100000 nM | Cmax [26]: 419 ng/mL | IC50 (CT26 [2]): 2300 nM | bioavailability [27]: 68%

Cc1cc2nc(Nc3ccc(S(=O)(=O)NCCN4CCCC4)cc3)nnc2cc1Br
IC50 [1]: > 10000 nM

COc1ccc(Cl)c(-c2cc(C)c3nc(Nc4ccc(OCCN5CCCC5)cc4)nnc3c2)c1
IC50 [1]: 778 nM

COc1cc2c(cc1O)CCN[C@]21CS[C@H]2c3c(OC(C)=O)c(C)c4c(c3[C@@H](COC1=O)N1[C@@H]2[C@H]2c3c(cc(C)c(OC)c3O)C[C@@H]([C@@H]1O)N2C)OCO4
IC50 [1]: 208 nM
